Measurements: patent US20050009151A1, “Methods for the stereospecific and enantiomeric enrichment of beta-amino acids” (Pharmacia Corporation, priority 2003, published 2005)

What was measured:
Assay type in all cases: biochemical
[1] = tested on: β-aminotransferase from Alcaligenes eutrophus; test: Resolution of substrates with cell lysate from Alcaligenes eutrophus
Protocol: (§1) A buffer consisting of 0.3M Tricine, 15 mM MgSO4, enough pyridoxal phosphate to impart a pale yellow color and 0.3M sodium glutamate (for deamination reactions) or 0.3 M 2-ketoglutarate monopotassium salt (for synthesis reactions) was prepared.
(§2) One part buffer was combined with two parts lysate and this mixture was then added to pre-weighed substrate to give a concentration of 1 mg/ml substrate. Reactions were typically run at 1 ml scale with gentle shaking at 26° C.
(§3) 10 ul of 2N HCl was added to a plastic screw capped vial and 90ul of sample was then added. The pH of the mixture confirmed to be below 4 and the mixture was centrifuged in a microcentrifuge at maximum speed for about 2 minutes to remove precipitated materials.
(§4) Samples were derivatized using Marfey's reagent, N•-(2,4-dinitro-5-fluorophenyl)-L-alaninamide. A stock solution of 10 mg/mL in acetone of this reagent was prepared. Either 20 or 40 ul of bioconversion sample was added to 20 ul 1.3 M KHCO3. To this was added 80 ul of the stock reagent solution, the vial sealed tightly, and heated at 70° C. for 10 minutes. As needed, after cooling to room temperature, the heated samples were centrifuged to remove solids. The supernatants were analyzed using an Eclipse XDB-C8 column, 4.6×150 mm, eluting with methanol gradient in water, from 50% methanol to 100% methanol. Both solvents were acidified with 0.1% trifluoroacetic acid.
(§5) For resolution experiments, the area of the peak consumed (converted to keto acid) was compared to the area remaining of the unconsumed peak, on the assumption that none was converted.

[2] = tested on: β-aminotransferase enzyme from Variovorax paradoxus (CC-KGbPHe-I14); test: D-β-aminotransferase keto acid substrate specificity; conditions: rate of conversion of D-β-phenylalanine to 3-keto-3-phenylpropionic acid as percent of the rate using α-ketoglutarate; 10 mg/ml α-keto acceptor, 1 hour, 37° C.
Protocol: Semi-purified β-aminotransferase enzyme from Variovorax paradoxus (CC-KGbPHe-I14) was assayed using D-β-phenylalanine as the amino donor, in an assay consisting of 100 mM potassium phosphate, 2 mg/ml DL-β-phenylalanine, 10 mg/ml α-keto acceptor and 0.1 mM pyridoxal phosphate, at pH 8.0. The reactions were run at 37° C. with mild stirring for 1 hour. At 1 hour reaction time, 0.1 ml samples were withdrawn, acidified with addition of 0.1 ml 0.1N HCl, and centrifuged. The supernatant solution was collected into HPLC sample vials. Conversion of DL-β-phenylalanine to 3-keto-3-phenylpropionate was quantified using reverse phase HPLC. The following keto acids were screened for activity: α-ketoglutaric acid, oxaloacetic acid, pyruvic acid, 3-oxoadipic acid, 2-oxoadipic acid, 1,3-acetonedicarboxylic acid, and 4-ketopimelic acid. The relative rates of conversion of D-β-phenylalanine to 3-keto-3-phenylpropionic acid using the various keto acceptors is reported as percent of the rate using α-ketoglutarate, the experimentally determined preferred acceptor.

[3] = tested on: Variovorax paradoxus β-aminotransferase; test: Resolution of substrates with Variovorax paradoxus β-aminotransferase; conditions: cell lysate
Protocol: […] Reactions were typically run at 1 ml scale with gentle shaking at 26° C.
as §3, §4, §5

[4] = tested on: Alcaligenes eutrophus L-β-aminotransferase; test: Substrate specificity of Alcaligenes eutrophus L-β-aminotransferase (crude cell homogenate); conditions: for MSB Culture Extract D(S)-b-Phe consumed at t = 1 Hr / MSB Culture Extract L(R)-b-Phe consumed at t = 1 Hr: cells grown in MSB; for MSB Culture Extract D(S)-b-Phe consumed at t = 1 Hr / MSB Culture Extract L(R)-b-Phe consumed at t = 1 Hr / NB Culture Extract of Alcaligenes eutrophus D(S)-b-Phe consumed at t = 1 Hr / NB Culture Extract of Alcaligenes eutrophus L(R)-b-Phe consumed at t = 1 Hr: keto acceptor with or without PLP as labelled; for NB Culture Extract of Alcaligenes eutrophus D(S)-b-Phe consumed at t = 1 Hr / NB Culture Extract of Alcaligenes eutrophus L(R)-b-Phe consumed at t = 1 Hr: cells grown in NB
Protocol: Cell-free homogenates were used in assays designed to determine substrate specificity. The assays contained: 0.1-0.3 mg/ml protein, 10 mg/ml keto acceptor, 1 mg/ml amino donor, 0.1 mM pyridoxal phosphate, and 100 mM potassium phosphate, at pH 8.0. The reactions were run at 37° C. with gentle stirring for 1 hour. At 1 hour reaction time, 0.1 ml samples were withdrawn, acidified with addition of 0.1 ml 0.1N HCl, and centrifuged. The supernatant solution was collected into HPLC sample vials. Conversion of amino acid to the corresponding ketone was quantified using reverse phase HPLC. Enzymatic activity was measured as the rate of conversion of amino donor in a one hour period. In a series of reactions, the enzymatic activity was determined with the following variables: inclusion or omission of pyridoxal phosphate, using α-ketoglutarate or pyruvate as a keto acceptor, and (D)- or (L)-β-phenylalanine as amino donor.

[5] = tested on: β-aminotransferase enzyme from Variovorax paradoxus; test: D-β-aminotransferase amino donor specificity; conditions: 2 mg/ml amino donor, 10 mg/ml α-ketoglutarate, 1 hour, 37° C.
Protocol: The same preparation of semi-purified β-aminotransferase enzyme from Variovorax paradoxus was then assayed using a-ketoglutarate as the keto acceptor, in an assay consisting of 100 mM potassium phosphate, 10 mg/ml α-ketoglutarate, 2 mg/ml amino donor and 0.1 mM pyridoxal phosphate, at pH 8.0. The reactions were run at 37° C. with mild stirring for 1 hour. At 1 hour reaction time, 0.1 ml samples were withdrawn, acidified with addition of 0.1 ml 0.1N HCl, and centrifuged. The supernatant solution was collected into HPLC sample vials. Conversion of an amino acid to the corresponding ketone was quantified using reverse phase HPLC. The following amino acids (as an amino donor) were screened for activity: α-(D)-phenylalanine, α-(L)-phenylalanine, β-(D)-phenylalanine, β-(L)-phenylalanine, (D)-3-amino-5-phenylpentanoic acid, and (L)-3-amino-5-phenylpentantoic acid.

[6] = tested on: Variovorax paradoxus β-aminotransferase; test: Synthesis of β-amino acid from β-keto acid with Variovorax paradoxus β-aminotransferase; conditions: sodium sulfate purified β-aminotransferase, 3 hours
Protocol: as §1, §2, §3, §4
For synthesis experiments, in which β-keto acid was converted to β-amino acid, the area of the peak(s) was compared to a standard curve derived for β-phenylalanine.

NC(CC(=O)O)c1ccco1 (stereo not shown) [3-amino-3-(2-furyl)propanoic acid]
Peak consumption (earlier eluting peak) ([1]; 21 hours): 73%
Peak consumption (earlier eluting peak) ([1]; 21 hours, listed as 3-amino-3-(2-furyl) propanoic acid): 73%

O=C(O)CCCC(=O)C(=O)O [2-Oxoadipic Acid]
Relative Activity [2]: 0.6%

N[C@H](CC(=O)O)c1ccccc1F [o-fluoro-β-phenylalanine]
Peak consumption (later eluting peak) ([3]; 67 hours): 99%
Peak consumption (later eluting peak) ([3]; 67 hours, listed as o-fluoro-α-phenylalanine): 99%

NC1CCCCC1C(=O)O (stereo not shown) [2-aminocyclohexanecarboxylic acid]
Peak consumption (later eluting peak(s)) ([3]; 19 hours): >99%

CC(=O)C(=O)O [Pyruvic Acid]
Relative Activity [2]: 14%
MSB Culture Extract D(S)-b-Phe consumed at t = 1 Hr [4]: 7.789
MSB Culture Extract L(R)-b-Phe consumed at t = 1 Hr [4]: 45.1865
NB Culture Extract of Alcaligenes eutrophus D(S)-b-Phe consumed at t = 1 Hr [4]: 3.37
NB Culture Extract of Alcaligenes eutrophus L(R)-b-Phe consumed at t = 1 Hr [4]: 48.61

N[C@@H](Cc1ccccc1)C(=O)O [α-(L)-phenylalanine]
substrate for the enzyme (amino donor) [5]: Only β-(D)-phenylalanine and (D)-3-amino-5-phenylpenantoic acid were substrates

O=C(O)CCC(=O)CC(=O)O [3-Oxoadipic Acid]
Relative Activity [2]: 6%

O=C(O)CCC(=O)C(=O)O [α-ketoglutarate]
Relative Activity [2]: 100%
MSB Culture Extract D(S)-b-Phe consumed at t = 1 Hr [4]: 0.966
MSB Culture Extract L(R)-b-Phe consumed at t = 1 Hr [4]: 6.9281
NB Culture Extract of Alcaligenes eutrophus D(S)-b-Phe consumed at t = 1 Hr [4]: 0.00
NB Culture Extract of Alcaligenes eutrophus L(R)-b-Phe consumed at t = 1 Hr [4]: 3.41

O=C(O)CC(=O)CC(=O)O [1,3-Acetonedicarboxylic Acid]
Relative Activity [2]: 0%

NC(CC(=O)O)c1ccc2ccccc2c1 (stereo not shown) [3-amino-3-(2-naphthyl)propanoic acid]
Peak consumption (later eluting peak) ([3]; 5 hours): 50%

O=C(O)C(=O)Cc1ccccc1F [o-fluoro-phenyl-2-oxopropanoic acid]
product stereoisomer peak observed [6]: only later eluting peak was observed
β-amino acid formed, using β-phenylalanine as standard [6]: approximately 0.02 mg/mL

N[C@H](CCc1ccccc1)CC(=O)O [(D)-3-amino-5-phenylpenantoic acid, D- or (R)-3-amino-5-phenyl-pentanoic acid]
substrate for the enzyme (amino donor) [5]: substrates for the enzyme

O=C(O)CCC(=O)CCC(=O)O [4-Ketopimelic Acid]
Relative Activity [2]: 0%

N[C@H](CC(=O)O)c1ccccc1 [β-(L)-phenylalanine, L- or (R)-3-amino-3-phenylpropionic acid]
substrate for the enzyme (amino donor) [5]: Only β-(D)-phenylalanine and (D)-3-amino-5-phenylpenantoic acid were substrates
preference of the enzyme for the enantiomer ([4]; enzyme preferring pyruvic acid as amino acceptor, no activity on the D-enantiomer): 100%

CCCC(N)CC(=O)O (stereo not shown) [3-aminohexanoic acid]
Peak consumption (later eluting peak) ([3]; 1 hour): >99%

NC(CC(=O)O)C1CC1 (stereo not shown) [3-amino-3-cyclopropylpropanoic acid]
early eluting peak observed ([3]; 0.225 M substrate, 0.45 M alpha-ketoglutarate, pH 8.1, 18.2 hours): 99.5%
Peak consumption (later eluting peak) ([3]; 22 hours): 98%
Peak consumption (earlier eluting peak) ([1]; 22 hours): approximately 42%
Peak consumption (earlier eluting peak) ([1]; 22 hours, listed as 3-amino-3-cyclopropyl propanoic acid): 42%
